ChEMBL document CHEMBL5728731, “Alkyl chain modified imidazoquinoline TLR7/8 agonist compounds and uses thereof” (2021)

Target: T1, Toll-like receptor 8 (Homo sapiens, UniProt Q9NR97)
T1 sequence (Q9NR97 whole entry): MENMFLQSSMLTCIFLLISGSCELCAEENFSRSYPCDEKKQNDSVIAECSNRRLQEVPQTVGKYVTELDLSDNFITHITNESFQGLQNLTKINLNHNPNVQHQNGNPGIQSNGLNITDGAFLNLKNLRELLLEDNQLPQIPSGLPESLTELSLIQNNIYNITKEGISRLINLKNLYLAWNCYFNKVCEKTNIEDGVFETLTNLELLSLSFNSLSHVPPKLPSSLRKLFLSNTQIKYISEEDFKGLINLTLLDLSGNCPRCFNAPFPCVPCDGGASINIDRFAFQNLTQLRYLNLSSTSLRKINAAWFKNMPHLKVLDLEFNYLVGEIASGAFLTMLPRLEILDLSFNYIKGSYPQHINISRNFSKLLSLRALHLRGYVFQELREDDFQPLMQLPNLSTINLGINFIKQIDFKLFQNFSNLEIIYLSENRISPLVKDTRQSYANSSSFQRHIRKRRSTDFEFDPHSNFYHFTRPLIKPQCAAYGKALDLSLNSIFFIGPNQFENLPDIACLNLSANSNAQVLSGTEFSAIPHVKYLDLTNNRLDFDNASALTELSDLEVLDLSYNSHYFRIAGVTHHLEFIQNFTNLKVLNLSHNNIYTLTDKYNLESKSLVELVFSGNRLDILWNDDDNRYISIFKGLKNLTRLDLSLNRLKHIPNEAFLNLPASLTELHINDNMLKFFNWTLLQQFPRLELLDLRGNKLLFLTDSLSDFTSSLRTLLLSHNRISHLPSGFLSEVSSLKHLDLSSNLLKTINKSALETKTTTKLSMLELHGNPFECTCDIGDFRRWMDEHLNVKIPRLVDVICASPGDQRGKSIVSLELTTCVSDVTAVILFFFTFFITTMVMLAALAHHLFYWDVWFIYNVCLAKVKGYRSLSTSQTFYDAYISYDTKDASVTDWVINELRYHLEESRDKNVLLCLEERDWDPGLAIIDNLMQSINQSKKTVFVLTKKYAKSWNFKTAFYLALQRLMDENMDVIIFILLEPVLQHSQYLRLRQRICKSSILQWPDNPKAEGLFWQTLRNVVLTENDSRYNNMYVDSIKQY
Experiment: (§1) n Vitro Biological Assays: Plasmacytoid dendritic cell (pDC)—enriched peripheral blood mononuclear cells (PBMCs) were prepared from the blood of a series of human donors (3-5 donors/experiment). PBMCs were isolated using Ficoll-Paque Premium® (GE Healthcare, Chicago Ill.) using methods well known to those in the art. pDCs were magnetically isolated from the total recovered PBMC population using CD304 (BDCA-4/Neuropilin-1) microbeads (Miltenyi Biotec, San Diego Calif.), according to the manufacturer's instructions. Isolated pDCs were then added back to between 1 and 2×108 of the corresponding donor's PBMCs for relative enrichment of this cell type. […] Culture supernatants were collected and interferon-alpha (IFNα) protein levels were measured by ELISA (MabTech, Cincinnati Ohio), according to the manufacturer's instructions.Monocytes were magnetically isolated from PBMCs, prepared as described above, following labeling with CD14 microbeads (Miltenyi Biotec, San Diego Calif.), according to the manufacturer's instructions. […] Culture supernatants were collected and tumor necrosis factor alpha (TNFα) protein levels were measured by ELISA (MabTech, Cincinnati Ohio), according to the manufacturer's instructions.

Point of comparison: `CCCCCCCCCCCCCCCCCC(=O)NCc1ccc(Cn2c(CCCC)nc3c(N)nc4ccccc4c32)cc1`, EC50 5.72 µM. Against it:
- CCCCCC(=O)NCc1ccc(Cn2c(CCCC)nc3c(N)nc4ccccc4c32)cc1 — 2.7-fold lower, 2.14 µM
- CCCCCCCCCCCCCCC(=O)NCc1ccc(Cn2c(CCCC)nc3c(N)nc4ccccc4c32)cc1 — 6.9-fold lower, 0.827 µM

Target: T2, Toll-like receptor 7 (Homo sapiens, UniProt Q9NYK1)
T2 sequence (Q9NYK1 whole entry): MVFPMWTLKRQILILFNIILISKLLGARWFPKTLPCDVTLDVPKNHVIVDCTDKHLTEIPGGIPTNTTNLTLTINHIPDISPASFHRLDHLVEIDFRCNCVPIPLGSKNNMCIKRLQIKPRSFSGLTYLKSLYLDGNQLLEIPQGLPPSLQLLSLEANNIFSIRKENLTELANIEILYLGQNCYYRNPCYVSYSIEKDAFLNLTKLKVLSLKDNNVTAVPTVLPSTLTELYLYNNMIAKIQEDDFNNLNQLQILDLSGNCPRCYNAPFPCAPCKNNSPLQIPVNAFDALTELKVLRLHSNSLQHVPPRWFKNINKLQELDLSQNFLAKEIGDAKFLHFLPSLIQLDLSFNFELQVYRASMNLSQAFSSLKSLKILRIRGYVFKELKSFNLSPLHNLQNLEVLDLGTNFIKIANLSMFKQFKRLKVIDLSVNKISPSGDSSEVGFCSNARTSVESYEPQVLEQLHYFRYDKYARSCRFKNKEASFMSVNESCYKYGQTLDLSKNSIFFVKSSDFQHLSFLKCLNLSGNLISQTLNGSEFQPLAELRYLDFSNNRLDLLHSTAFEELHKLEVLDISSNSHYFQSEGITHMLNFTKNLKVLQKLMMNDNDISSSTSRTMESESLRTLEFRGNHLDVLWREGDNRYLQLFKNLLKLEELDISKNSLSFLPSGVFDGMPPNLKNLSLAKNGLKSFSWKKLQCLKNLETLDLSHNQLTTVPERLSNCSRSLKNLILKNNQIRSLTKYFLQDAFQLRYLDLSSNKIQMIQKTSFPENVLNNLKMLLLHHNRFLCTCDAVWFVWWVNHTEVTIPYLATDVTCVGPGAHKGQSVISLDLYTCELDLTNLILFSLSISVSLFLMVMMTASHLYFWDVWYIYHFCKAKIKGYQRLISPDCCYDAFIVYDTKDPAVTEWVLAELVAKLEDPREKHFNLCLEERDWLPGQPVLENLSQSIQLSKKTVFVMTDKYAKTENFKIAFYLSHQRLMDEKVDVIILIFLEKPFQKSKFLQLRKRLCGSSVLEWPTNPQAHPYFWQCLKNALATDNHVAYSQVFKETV
Experiment: as §1

Point of comparison: `CCCCCCCCCCCCCCC(=O)NCc1ccc(Cn2c(CCCC)nc3c(N)nc4ccccc4c32)cc1`, EC50 0.002 µM. Against it:
- CCCCCCCCCCCCCCCCCC(=O)NCc1ccc(Cn2c(CCCC)nc3c(N)nc4ccccc4c32)cc1 — 20-fold higher, 0.041 µM
- CCCCCC(=O)NCc1ccc(Cn2c(CCCC)nc3c(N)nc4ccccc4c32)cc1 — 5.5-fold higher, 0.011 µM
